{"source": "patent EP0503537B1", "about": "“6,9 Bis(substituted-amino)benzo-[g]isoquinoline-5,10-diones” (THE UNIVERSITY OF VERMONT, priority 1991, dated 1992)", "key": {"Lovo/DX": {"system": "Lovo/DX", "assay": "MTT cytotoxicity assay on doxorubicin-resistant subline Lovo/DX", "format": "cell-based, human", "settings": "for IC50: Homo sapiens, LoVo/DX, MTT assay, 144 hrs drug exposure, read-out: IC50 µg/ml±S.D. LoVo/Dx; for R.I.: R.I. = (IC50 LoVo/Dx)/(IC50 LoVo); for cross resistance with mitoxantrone and ametantrone: resistant subline Lovo/DX", "protocol": "(§1) The evaluation of the \"in vitro\" cytotoxic activity of the compounds of the invention was performed using a human colon adenocarcinoma cell line (Lovo) isolated from a metastatic nodule and a subline with aquired resistance to a number of antitumor agents, among which doxorubicin, VP-16 and vincristine. […] The compounds were tested according to the MTT assay (Mosman, T., \"Rapid Colorimetric assay for cellular growth and survival: application to proliferation and cytotoxicity assay\", J. Immunol. Methods, (1983), 65, 55-63; Green, L.M., \"Rapid colorimetric assay for cell viability; application to the quantitation of cytotoxic and growth inhibitory lymphokines\", J. Immunol. Methods, (1984), 70, 257-268) in comparison with mitoxantrone, ametantrone and doxorubicin.\n(§2) In vitro biological evaluation: MTT assay on human colon adenocarcinoma Lovo cells.\n(§3) The MTT assay was performed according to Mosmann, T., J. Immunol. Methods, (1983), 65, 55-63 and Green, L. M., J. Immunol. Methods, (1984), 70, 257-268.\n(§4) Immediately before use, compounds and reference standards are dissolved in proper solvent and subsequently further diluted in complete culture medium. Human colon adenocarcinoma cells Lovo and the subline resistant to doxorubicin (Lovo/DX) (2.5. 10^4 cells/ml) are plated in 96-well plates and preincubated for 24 hours in culture medium. After this time, the cells are exposed to drugs for 144 hours, then the thiazolyl blue tetrazolium bromide solution (MTT solution) is added and the cells are reincubated for 4 hours. The supernatant is removed and 150 µl of dimethylsulfoxide are added to solubilize formazan crystals. The plate is read at 570 nm with microplate reader and the inhibiting concentration of 50% cellular growth (IC50; µg/ml) is calculated."}, "[1]": {"system": "human colon adenocarcinoma cell line (Lovo)", "assay": "MTT cytotoxicity assay on human colon adenocarcinoma Lovo cells", "format": "cell-based", "settings": "MTT assay, 144 hrs drug exposure, read-out: IC50 µg/ml±S.D. LoVo", "protocol": "as §1, §2, §3, §4"}}, "data": [{"compound": "O=C1c2ccccc2C(=O)c2c(NCCNCCO)ccc(NCCNCCO)c21", "note": "[Ametantrone, 1,4-bis{[2-(2-hydroxyethylamino)ethyl]amino}anthracene-9,10-dione, reference compound]", "values": [{"measurement": "IC50", "setting": "Lovo/DX", "result": "33.4 ± 13.9", "unit": "mg/L"}, {"measurement": "R.I.", "setting": "Lovo/DX", "result": 101.2}, {"measurement": "IC50", "setting": "[1]", "result": "0.33 ± 0.1", "unit": "mg/L"}]}, {"compound": "CCN(CC)CCNc1ccc(NCCN(CC)CC)c2c1C(=O)c1ccncc1C2=O", "note": "[Compound 10b, 6,9-Bis{[2-(diethylamino)ethyl]amino}benzo[g]isoquinoline-5,10-dione]", "values": [{"measurement": "IC50", "setting": "Lovo/DX", "result": "0.69 ± 0.1", "unit": "mg/L"}, {"measurement": "R.I.", "setting": "Lovo/DX", "result": 2.4}, {"measurement": "cross resistance with mitoxantrone and ametantrone", "setting": "Lovo/DX", "result": "no cross resistance"}, {"measurement": "IC50", "setting": "[1]", "result": "0.29 ± 0.05", "unit": "mg/L"}]}, {"compound": "O=C1c2ccncc2C(=O)c2c(NCCN3CCCC3)ccc(NCCN3CCCC3)c21", "note": "[Compound 10d, 6,9-Bis{[2-(1'-pyrrolidino)ethyl]amino}benzo[g]isoquinoline-5,10-dione]", "values": [{"measurement": "IC50", "setting": "Lovo/DX", "result": "0.52 ± 0.15", "unit": "mg/L"}, {"measurement": "R.I.", "setting": "Lovo/DX", "result": 2.6}, {"measurement": "cross resistance with mitoxantrone and ametantrone", "setting": "Lovo/DX", "result": "no cross resistance"}, {"measurement": "IC50", "setting": "[1]", "result": "0.2 ± 0.03", "unit": "mg/L"}]}, {"compound": "O=C1c2ccncc2C(=O)c2c(NCCN3CCOCC3)ccc(NCCN3CCOCC3)c21", "note": "[Compound 10e, 6,9-Bis{[2-(4'-morpholino)ethyl]amino}benzo[g]isoquinoline-5,10-dione]", "values": [{"measurement": "IC50", "setting": "Lovo/DX", "result": "2.29 ± 0.67", "unit": "mg/L"}, {"measurement": "R.I.", "setting": "Lovo/DX", "result": 0.4}, {"measurement": "cross resistance with mitoxantrone and ametantrone", "setting": "Lovo/DX", "result": "no cross resistance"}, {"measurement": "IC50", "setting": "[1]", "result": "5.32 ± 1.55", "unit": "mg/L"}]}, {"compound": "NCCCNc1ccc(NCCCN)c2c1C(=O)c1ccncc1C2=O", "note": "[Compound 12a, 6,9-Bis{[3-(amino)propyl]amino}benzo[g]isoquinoline-5,10-dione]", "values": [{"measurement": "IC50", "setting": "Lovo/DX", "result": "20.9 ± 0.72", "unit": "mg/L"}, {"measurement": "R.I.", "setting": "Lovo/DX", "result": 12.7}, {"measurement": "IC50", "setting": "[1]", "result": "1.64 ± 0.02", "unit": "mg/L"}]}, {"compound": "CN(C)CCCNc1ccc(NCCCN(C)C)c2c1C(=O)c1ccncc1C2=O", "note": "[Compound 12c, 6,9-Bis{[3-(dimethylamino)propyl]amino}benzo[g]isoquinoline-5,10-dione]", "values": [{"measurement": "IC50", "setting": "Lovo/DX", "result": "0.36 ± 0.04", "unit": "mg/L"}, {"measurement": "R.I.", "setting": "Lovo/DX", "result": 2.4}, {"measurement": "cross resistance with mitoxantrone and ametantrone", "setting": "Lovo/DX", "result": "no cross resistance"}, {"measurement": "IC50", "setting": "[1]", "result": "0.15 ± 0.07", "unit": "mg/L"}]}, {"compound": "COc1cccc2c1C(=O)c1c(O)c3c(c(O)c1C2=O)C[C@@](O)(C(=O)CO)C[C@@H]3O[C@H]1C[C@H](N)[C@H](O)[C@H](C)O1", "note": "[Doxorubicin, reference compound]", "values": [{"measurement": "IC50", "setting": "Lovo/DX", "result": "4.28 ± 1.8", "unit": "mg/L"}, {"measurement": "R.I.", "setting": "Lovo/DX", "result": 142.7}, {"measurement": "IC50", "setting": "[1]", "result": "0.03 ± 0.009", "unit": "mg/L"}]}]}
